Where two headings read alike, the source gives them in different places. Blank lines part the entries; values can stand above or below the molecule they belong to.
Legend:
[1] = published standard, 10 mg/kg PO; cited from earlier work
r-hPDE2A = r-hPDE2A (Homo sapiens (Human), UniProt O00408); test: Measurement of PDE2 inhibition in vitro (IMAP fluorescence polarization); assay type: biochemical; conditions: FL-cAMP substrate, buffer supplemented with 1 μM cGMP
Description: Measurement of PDE2 Inhibition In Vitro
r-hPDE2A (Accession No. NM_002599, Homo sapiens phosphodiesterase 2A, cGMP-stimulated, transcript variant 1) A mammalian expression cloning vector with recombinant cDNA copy of the gene is purchased from Origene. Protein is expressed via transient transfection of HEK293 cells. The cells are harvested at 48 hours after transfection, washed once with TBS buffer (50 mM Tris-HCl, pH 7.5, 150 mM NaCl), then lysed by sonication in cold homogenization buffer (50 mM Tris-HCl, pH 7.5, 5 mM MgCl2, 1× protease inhibitor cocktail). The homogenate is centrifuged for 30 min at 15,000 g at 4° C. to obtain the soluble cytosolic fraction. The protein concentration of the cytosol is determined using BCA Protein Assay Kit (Pierce) with bovine serum albumin as a standard.
Assay: PDE2A is assayed with FL-cAMP as substrate. An enzyme titration is first performed to determine the working concentration of PDE. The concentration of the enzyme giving activity of 100 ΔmP in the absence of inhibitor is deemed an appropriate working concentration for PDE.
PDE enzyme is diluted in a standard reaction buffer (10 mM Tris-HCl pH 7.2, 10 mM MgCl2, 0.1% BSA, 0.05% NaN3) according to the titration curve. For PDE2 assay the reaction buffer is supplemented with 1 μM cGMP to fully activate the enzyme. 99 μl of diluted enzyme solution is added into each well in a flat bottom 96-well polystyrene plate and then ˜1 μl of test compound dissolved in 100% DMSO is added. The compounds are mixed and pre-incubated with the enzyme for 10 min at room temperature.
The FL-cNMP conversion reaction is initiated by addition of substrate (45 nM final). Enzyme and inhibitor mix (16 μl) and substrate solution (4 μl of 0.225 μM) are combined in a 384-well microtiter plate. The reaction is incubated in the dark at room temperature for 15 min. The reaction is halted by addition of 60 μl of binding reagent (1:400 dilution of IMAP beads in binding buffer supplemented with 1:1800 dilution of antifoam) to each well of the 384-well plate. The plate is incubated at room temperature for 1 hour to allow IMAP binding to proceed to completion, and then placed in an Envision multimode microplate reader (PerkinElmer, Shelton, Conn.) to measure the fluorescence polarization (Δmp).
A decrease in cAMP concentration, measured as decreased Amp, is indicative of inhibition of PDE activity. […] Test well values are normalized to control reactions run on the same plate (values converted to % of control). IC50 values are estimated using nonlinear regression software, fitting a four-parameter one-site dose-response model (XLFit; IDBS, Cambridge, Mass.). Bottom of curve is fixed at 0% of control.
The total fluorescence intensity of each sample well is measured to calculate the average and standard deviation. If the total fluorescence intensity of any sample well is not within the range of Average±3SD, the mp value of that particular well is discarded.

[2] = test system: cGMP levels in the striatum; test: Measurements of cGMP in mouse brain in vivo
Description: Measurements of cGMP in Mouse Brain in vivo:
Striatum are dissected from the mouse brains and assayed for levels of cGMP. Trichloroacetic acid (TCA) is added to tissue samples for a final concentration of 5% TCA and the tissue is immediately sonicated in solution and stored on ice. The sonicated sample is centrifuged at 15,000×g for 20 min at 4° C. to remove the precipitated protein. To extract the TCA, the sample is washed three times in water saturated ether. The samples are then dried under vacuum (Speedvac, Savant SPD111V) at room temperature and re-suspended in 100 μL EIA buffer. […] Each sample is tested in duplicate in precoated assay plates alongside the 8-point cGMP standard dilutions. In addition, blank, maximum binding (B0) and non-specific binding wells are included. To all wells containing 50 μL sample or standard, equal volumes of AChE-linked cGMP and cGMP antibody are added. The plate is incubated at 4° C. for 18 hours. The wells are then washed 5 times with wash buffer. […] Each data point is converted to % B/B0 (100*[(sample or standard OD−average non-specific binding)/(average B0−average non-specific binding)]). The standards are plotted and fit to a 4-parameter logistic equation (FIG. 1). The concentrations of the samples are interpolated from the standard curve using Microsoft Excel and GraphPad Prizm.

[3] = Pharmacokinetic study in mice (plasma and brain availability); assay type: in vivo; conditions: 10 mg/kg PO; for blood plasma ratio: brain/plasma, po, 10 mg/kg
Description: Pharmacokinetic Study in Mice
Mice are given a single oral dose of the compound of Example 22 (10 mg/kg, PO) and plasma and brain availability are measured (0.25-4 h) using HPLC and LC-MS using methods analogous to those described in Zhao et al., J. Chromatogr. B. Analyt. Technol. Biomed. Life Sci. (2005) 819(1):73-80 and Appels, N. M., et al., Rapid Commun. Mass Spec. 2005. 19(15): p. 2187-92.

Sequence of r-hPDE2A (O00408 whole entry): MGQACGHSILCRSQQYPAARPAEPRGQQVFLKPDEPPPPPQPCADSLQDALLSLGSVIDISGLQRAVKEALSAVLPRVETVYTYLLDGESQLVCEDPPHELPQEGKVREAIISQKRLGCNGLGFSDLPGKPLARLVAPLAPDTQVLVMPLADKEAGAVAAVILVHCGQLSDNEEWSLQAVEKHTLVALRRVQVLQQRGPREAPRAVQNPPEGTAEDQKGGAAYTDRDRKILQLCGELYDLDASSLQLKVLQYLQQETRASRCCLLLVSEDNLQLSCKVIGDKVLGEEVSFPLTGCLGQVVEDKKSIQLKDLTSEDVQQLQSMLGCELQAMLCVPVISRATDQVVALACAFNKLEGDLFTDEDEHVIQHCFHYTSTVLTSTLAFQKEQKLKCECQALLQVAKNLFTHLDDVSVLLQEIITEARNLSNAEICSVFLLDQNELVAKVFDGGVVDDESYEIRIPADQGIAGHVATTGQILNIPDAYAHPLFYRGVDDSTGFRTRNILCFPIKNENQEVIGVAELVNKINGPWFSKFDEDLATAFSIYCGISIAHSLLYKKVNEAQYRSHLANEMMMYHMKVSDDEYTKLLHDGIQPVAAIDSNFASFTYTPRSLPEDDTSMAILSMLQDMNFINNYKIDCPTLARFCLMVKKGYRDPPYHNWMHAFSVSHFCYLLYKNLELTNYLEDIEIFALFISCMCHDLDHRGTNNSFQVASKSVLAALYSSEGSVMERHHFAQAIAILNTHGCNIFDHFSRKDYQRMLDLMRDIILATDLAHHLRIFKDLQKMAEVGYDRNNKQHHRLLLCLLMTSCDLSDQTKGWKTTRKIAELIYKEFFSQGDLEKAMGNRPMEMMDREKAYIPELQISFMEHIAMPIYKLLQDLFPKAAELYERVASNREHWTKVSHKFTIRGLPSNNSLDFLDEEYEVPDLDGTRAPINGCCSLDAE

SMILES: COc1ccc(Cc2nn3c([C@@H](CCCc4ccccc4)[C@@H](C)O)nc(C)c3c(=O)[nH]2)cc1OC [Bay 60-7550]
Cmax [1]: 3 ng/mL
Tmax [1]: 0.25 h

SMILES: CCCCOc1ccc(Cl)c(-n2nc(C)c3c(=O)[nH]c4cccnc4c32)c1 [Example 17, 1-(5-Butoxy-2-chlorophenyl)-3-methyl-1H-pyrazolo[4,3-c][1,5]naphthyridin-4(5H)-one]
IC50 (r-hPDE2A): 28 nM

IC50 (r-hPDE2A): 73 nM
SMILES: Cc1nn(-c2cc(Cl)ccc2Cl)c2c1c(=O)[nH]c1ccc(Cl)nc12 [Example 19, 8-Chloro-1-(2,5-dichlorophenyl)-3-methyl-1H-pyrazolo[4,3-c][1,5]naphthyridin-4(5H)-one]

SMILES: CCCCOc1ccc(Cl)c(-n2nc(C)c3c(=O)[nH]c4ccc(Cl)nc4c32)c1 [Example 20, 1-(5-Butoxy-2-chlorophenyl)-8-chloro-3-methyl-1H-pyrazolo[4,3-c][1,5]naphthyridin-4(5H)-one]
IC50 (r-hPDE2A): 12 nM

SMILES: CCCCOc1ccc(Cl)c(-n2nc(C)c3c(=O)[nH]c4ccc(OC)nc4c32)c1 [Example 21, 1-(5-Butoxy-2-chlorophenyl)-8-methoxy-3-methyl-1H-pyrazolo[4,3-c][1,5]naphthyridin-4(5H)-one]
IC50 (r-hPDE2A): 9.4 nM

SMILES: COc1ccc2[nH]c(=O)c3c(C)nn(-c4cc(OCC5CCC5)ccc4Cl)c3c2n1 [Example 22, 1-(2-Chloro-5-(cyclobutylmethoxy)phenyl)-8-methoxy-3-methyl-1H-pyrazolo[4,3-c][1,5]naphthyridin-4(5H)-one]
cGMP levels in the striatum of mice ([2]; 3 mg/kg i.p., 15, 30 or 60 min, compared to Bay 60-7550 (3 mg/kg)): increases cGMP levels
brain access compared to Bay60-7550 ([2]; inferred from striatal cGMP after 3 mg/kg i.p.): improvement in brain access
brain access ([3]; 0.25-4 h, compared to Bay 60-7550): good brain access
AUC ([3]; mouse, brain): 83 ng·h/mL
AUC(0-t) ([3]; mouse, brain): 50 ng·h/mL
Cmax ([3]; mouse, brain): 17 ng/mL
Tmax ([3]; mouse, brain): 2 h
half-life ([3]; mouse, brain, read-out: E Half-life (converted)): 2.4 h
blood plasma ratio ([3]; mouse, read-out: Blood/plasma Ratio of AUC (area)): 0.9
blood plasma ratio ([3]; mouse, read-out: Blood/plasma Ratio of Cmax (obs)): 1.4
blood plasma ratio ([3]; mouse, Blood/plasma Ratio of AUC (0-4 hr) (obs area)): 1.4
IC50 (r-hPDE2A): 5.9 nM
